pEC50: −log10 of the molar value.
Target: T1, human S1P1 receptor (Homo sapiens, UniProt P21453)
T1 construct: expressed in transfected cells; membranes used
Assay: GTP γ35S binding assay for S1P1 activity
Format: biochemical
Conditions: membranes of cells stably expressing the S1P1 receptor, agonist activity potency
Method: Compounds were synthesized and tested for S1P1 activity using the GTP γ^35S binding assay. These compounds may be assessed for their ability to activate or block activation of the human S1P1 receptor in cells stably expressing the S1P1 receptor.
GTP γ^35S binding was measured in the medium containing (mM) HEPES 25, pH 7.4, MgCl2 10, NaCl 100, dithiothreitol 0.5, digitonin 0.003%, 0.2 nM GTP γ^35S, and 5 μg membrane protein in a volume of 150 μl. Test compounds were included in the concentration range from 0.08 to 5,000 nM unless indicated otherwise. Membranes were incubated with 100 μM 5′-adenylylimidodiphosphate for 30 min, and subsequently with 10 μM GDP for 10 min on ice. Drug solutions and membrane were mixed, and then reactions were initiated by adding GTP γ^35S and continued for 30 min at 25° C. Reaction mixtures were filtered over Whatman GF/B filters under vacuum, and washed three times with 3 mL of ice-cold buffer (HEPES 25, pH 7.4, MgCl2 10 and NaCl 100). Filters were dried and mixed with scintillant, and counted for ^35S activity using a β-counter. Agonist-induced GTP γ^35S binding was obtained by subtracting that in the absence of agonist. Binding data were analyzed using a non-linear regression method. In case of antagonist assay, the reaction mixture contained 10 nM S1P in the presence of test antagonist at concentrations ranging from 0.08 to 5000 nM.

T1 sequence (P21453 whole entry): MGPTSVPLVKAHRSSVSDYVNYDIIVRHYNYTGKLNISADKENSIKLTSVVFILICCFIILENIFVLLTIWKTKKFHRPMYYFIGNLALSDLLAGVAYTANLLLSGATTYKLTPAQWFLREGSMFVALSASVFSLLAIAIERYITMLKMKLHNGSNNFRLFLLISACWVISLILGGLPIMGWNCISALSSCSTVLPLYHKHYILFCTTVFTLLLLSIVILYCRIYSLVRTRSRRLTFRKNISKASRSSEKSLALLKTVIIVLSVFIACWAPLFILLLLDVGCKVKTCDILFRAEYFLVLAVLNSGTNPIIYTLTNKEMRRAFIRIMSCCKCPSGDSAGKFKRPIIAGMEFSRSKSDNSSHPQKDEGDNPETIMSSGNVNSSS

pEC50: 6.35
SMILES: Cc1nn(C(=O)CCc2ccc(CN3CC(C(=O)O)C3)cc2)c2c1C1C(C2)C1(C)C (stereo not shown) [Compound 1, 1-{4-[3-oxo-3-(3,4,4-trimethyl-3b,4,4a,5-tetrahydro-1H-cyclopropa [3,4]cyclopenta[1,2-c]pyrazol-1-yl)propyl]benzyl}azetidine-3-carboxylic acid]

Reference: US9062030B2, “Pyrazole azetidine derivatives as sphingosine 1-phosphate (S1P) receptor modulators” (Allergan, Inc., priority 2013, dated 2015)
